Assay results from patent US10285986B2, “Compounds and anti-tumor NQO1 substrates” (The Board of Trustees of the University of Illinois, priority 2011, dated 2019).
In brackets after ≈: the same amount, converted by molar mass. Several values for one entry are separate records, joined by “and”; a condition that tells them apart may be missing. Identical values can stand only once. Like-named read-outs stand apart in the source and are kept apart here.

Legend:
[1] = cited from earlier work
rats = settings: cited from earlier work
PAR-PARP1 = experiment: PARP1 hyperactivation (PAR-PARP1 formation) in vivo in orthotopic Lewis Lung Carcinoma model, immunoblotting; design: species or system NOD/SCID mice; settings: iv at or near MTD
Method: Antibodies that specifically detect poly(ADP-ribosyl)ated α-PAR (BD Pharmingen, San Jose, Calif.) proteins (e.g., the most abundant species, poly(ADP-ribosyl)ated PARP1, PAR-PARP1) and α-PARP1 (sc-8007, Santa Cruz Biotechnology) antibodies were used at 1:4000 and 1:2000 dilutions, respectively. α-Tubulin was monitored for loading.
To generate a known control to monitor the formation of poly(ADP-ribose)ylated-polymerase 1 (PAR-PARP1) in cells, LLC tumor cells were treated in vitro with hydrogen peroxide (H2O2, 0.5 μM) for 15 minutes, and whole cell protein lysates were separated by SDS-PAGE using the α-PAR (BD Pharmingen, San Jose, Calif.) antibody described above. PAR-PARP1 formation was then assessed by immunoblot analyses as previously described in Huang et al., Cancer Research, 2012.
LLC cells (1.0×10^6) were intravenously (iv) injected into the tail veins of female 18-20 gram NOD/SCID mice. Establishment of tumor nodules in the lungs of exposed mice were confirmed by bioluminescence and mice (5/group) were treated intravenously (via tail vein injection) with: (i) hydroxypropyl-beta-cyclodextrin (HPRCD) vehicle alone; (ii) DNQ (7.5 mg/kg); (ii) DNQ-87 (14 mg/kg); (iii) DNQ-107 (10 mg/kg); or (vi) DNQ 9-251 (20 mg/kg) dissolved in HPRCD. At specific times indicated (in mins) after injection of vehicle or drug, mice were euthanized, lungs removed and tumor nodules harvested. […] Extracts from cells treated with H2O2 were used as controls for monitoring PAR-PARP1 formation in LLC tumor cells.

NQO1 = NQO1 (Homo sapiens, UniProt P15559); experiment: NQO1 enzymatic measurements in vitro; assay type: biochemical; settings: 1 μM substrate
Method: As further evidence that the activity of these DNQ derivatives is dependent on their ability to be reduced by NQO1, full enzymatic measurements in vitro were performed. We found a strong correlation between catalytic efficiency of substrates in vitro and their cell culture toxicity. […] This provides strong evidence that the cytotoxicity of DNQ and its derivatives are dependent primarily upon the activity of NQO1 within the cell.

[2] = Maximum tolerated dose in mice; settings: mouse, ip
Description: (§1) Because of the difficulty of repeated tail vein injections in mice, our group is using IP administration of compound.
(§2) All of these derivatives are currently being assessed for their maximum tolerated dose (MTD) in healthy mice. Compounds are formulated in HPβCD and delivered by IP injection to two mice once daily for five days.

healthy mice = experiment: in vivo; settings: mouse, 5 days
Description: as §1, §2

[3] = Aqueous solubility in pH 7.4 PBS by LC-MS; assay type: physicochemical; settings: phosphate buffered saline, pH 7.4, aqueous buffer, thermodynamic from solid, PBS pH 7.4; Table 4.3
Method: The aqueous solubility of DNQ at pH 7.4 in phosphate buffered saline (PBS) was measured by LC-MS. DNQ was sonicated for 30 minutes in PBS then undissolved solid was removed by filtration through a 0.45 μm syringe filter and the filtrate was analyzed by LC-MS (λ=275 nm, ESI-TOF in negative mode). The optimal sonication time was determined by sonicating DNQ for 1, 5, 10, and 30 minutes. While the concentration of DNQ in solution increased substantially between 1, 5, and 10 minutes, there was only a minor difference between 10 and 30 minutes. During the 30 minute sonication the water bath warmed to 45° C. (samples were cooled to room temperature before filtration). A calibration curve was generated from 1-100 μM by dissolving DNQ in methanol to a concentration of 500 μM and making dilutions of this stock in 80:20 water:methanol. The calibration curve (measure by UV absorbance) was linear over this range; 1 μM was approximately the limit of detection. […] The solution was very pale yellow.
The aqueous solubility of the compounds was determined by an LC-MS assay as described in the specification above. We applied the calibration curve generated for DNQ to the derivatives under the assumption that the UV profile of the derivatives of DNQ would be similar to that of DNQ.
After sonication and filtration most of the aqueous solutions were colorless. The solutions of DNQ, 4-31, and 4-37 were faintly yellow while 4-8, 4-14 and 4-41 were substantially more colored. The solution of 4-8, 4-14 and 4-41 were diluted 10-fold with PBS prior to LC-MS analysis to ensure that the concentrations fell within the range of the calibration curve.

MCF-7 cells = experiment: Cytotoxicity to MCF-7 cells with or without 25 μM dicoumarol (sulforhodamine B assay); assay type: cell-based, human
Method: The NQO1-dependent cytotoxicity of the first set of derivatives was determined in MCF-7 cells which express high levels of NQO1. Cells were exposed to DNQ for 2 hours in the presence or absence of 25 μM DIC. The media was then removed and cells were washed once with media then fresh media was added and the cells were incubated for 72 hours. Cell death was assessed using the sulforhodamine B assay previously described. […] Substitution off the nitrogen appeared well tolerated (4-14 and 4-15).
The DNQ derivatives synthesized were assayed for their toxicity to MCF-7 cells with or without DIC. The data from these experiments is organized in Table 4.2. […] This tolerance of sterically-demanding substituents corresponds with a flexible and promiscuous NQO1 active site. The poor activity of hydroxyl derivative 4-41 may be a result of either poor binding with the largely hydrophobic NQO1 active site or with an excessively strong substrate-enzyme interaction because of hydrogen bonding.

[4] = Solubility in organic solvents; assay type: physicochemical; settings: Table 1; for solubility: organic solvent or mixture, thermodynamic from solid, THF
[5] = Solubility in organic solvents; assay type: physicochemical; settings: for solubility: organic solvent or mixture, thermodynamic from solid
Method: The solubility of DNQ derivatives in organic solvents was determined by measuring the amount of a given solvent required to dissolve a known amount of compound. Solvent was added to the compound in 50 μL aliquots and the slurry was sonicated. […] Solubility was assessed in DMSO, dichloromethane, and 33% methanol in dichloromethane (FIGS. 9, 10, and 11, respectively).

[6] = Solubility in 20% HPβCD solution (pH modulation protocol); assay type: physicochemical; settings: 20% HPβCD; for solubility: 20% HPβCD in pH 7.4 PBS, pH 7.4, aqueous with cosolvent or surfactant or cyclodextrin, thermodynamic from solid, Table 4.3
Method: The protocol for formulating DNQ compounds in HPβCD is as follows: the DNQ compound is slurried in a 20% solution of HPβCD in pH 7.4 PBS and the pH is then increased by the addition of 10 M NaOH to induce dissolution of the DNQ compound. The pH is returned to pH 7.5-8.0 by the careful addition of 1 M HCl. A 3.3 mM solution of the DNQ compound can be made by this method which is stable at least 24 hours. This represents a 30-fold increase in solubility of DNQ over PBS alone.
Although we were pleased to find active derivatives of DNQ that were up to 4-fold more soluble in water—sufficiently soluble for continuous IV infusion for human administration—this level of solubility was insufficient for animal studies by bolus injection. […] We used the same pH modulation protocol outlined for DNQ described in the specification above. The results are organized in Table 4.3 and FIG. 8. While all compounds were more soluble in HPβCD than in buffer alone, the fold increase in solubility varied widely.

[7] = 20% HPβCD in H2O; cited from earlier work
NQO1+ cells = settings: in vitro; cited from earlier work
[8] = reported; cited from earlier work
[9] = pH 7.4 PBS; cited from earlier work
[10] = Homo sapiens, MCF7, Table 1, read-out: MCF7 IC50
[11] = Homo sapiens, MCF7, classification in figure legends of FIGS. 7-11, read-out: IC50 ("active" / generally "inactive" compounds)
[12] = 2:1 CH2Cl2:MeOH, Table 4.3, read-out: Solubility in 2:1 CH2Cl2:MeOH
[13] = CH2Cl2:MeOH 2:1, Table 1, read-out: CH2Cl2:MeOH 2:1 solubility
[14] = CH2Cl2, Table 1, read-out: CH2Cl2 solubility
[15] = DMSO, Table 1, read-out: DMSO solubility

Sequence of NQO1 (P15559 whole entry): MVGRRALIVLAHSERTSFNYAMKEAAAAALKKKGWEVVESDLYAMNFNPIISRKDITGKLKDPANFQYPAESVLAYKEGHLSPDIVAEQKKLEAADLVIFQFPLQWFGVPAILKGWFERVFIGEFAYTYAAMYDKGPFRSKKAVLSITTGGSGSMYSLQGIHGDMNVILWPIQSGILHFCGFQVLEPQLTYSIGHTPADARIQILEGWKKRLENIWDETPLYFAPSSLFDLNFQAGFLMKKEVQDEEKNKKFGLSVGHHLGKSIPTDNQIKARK

| Molecule | PAR-PARP1 formation in tumor tissue (PAR-PARP1) | NQO1 Initial Velocity @ 1 μM (NQO1) | solubility at 30 min [3] [µM] | IC50 (MCF-7 cells; [10]) [nM] | IC50 (MCF-7 cells; [11]) [nM] | Fold Protection of MCF7 cells w/ 25 μM dicoumarol (MCF-7 cells; Table 1) | solubility [4] [mM] | Solubility in CH2Cl2 ([5]; CH2Cl2, Table 4.3) [mM] | Solubility in DMSO ([5]; DMSO, Table 4.3) [mM] | solubility [5, 12] [mM] | solubility [5, 13] [mM] | solubility [5, 14] [mM] | solubility [5, 15] [mM] | solubility [6] [mM] | also measured |
| --- | --- | --- | --- | --- | --- | --- | --- | --- | --- | --- | --- | --- | --- | --- | --- |
| 2-hydroxypropyl-beta-cyclodextrin [HPβCD] | – | – | – | – | – | – | – | – | – | – | – | – | – | – | tolerated dose by IP injection [1]: > 5 g/kg; MTD by IV injection (rats): approximately 2.25 g/kg |
| Cc1cc(=O)[nH]c2c1C(=O)c1c(C)cc(=O)n(CCC(C)(C)C)c1C2=O [Compound 9-251] | higher levels of PAR-PARP1 formation | 2000 ± 100 | 7 (≈ 2.48 µg/mL) | 190 ± 20 | < 500 | 8 | 23 (≈ 8150 µg/mL) | 31 (≈ 11000 µg/mL) | 15 (≈ 5320 µg/mL) | 120 (≈ 42500 µg/mL) | 120 (≈ 42500 µg/mL) | 31 (≈ 11000 µg/mL) | 15 (≈ 5320 µg/mL) | 19 (≈ 6730 µg/mL) | MTD at 5 days ([2]; in vivo): 22 mg/kg and 62 µmol/kg; tolerated concentration relative to DNQ (healthy mice): 3.5 fold; IC50 (MCF-7 cells; Homo sapiens, MCF7, Table 4.2, no DIC, ± s.e., read-out: IC50 vs. MCF-7 cells): 220 ± 40 nM; IC50 (MCF-7 cells; Homo sapiens, MCF7, read-out: IC50 vs. MCF-7 cells +25 μM DIC, Table 4.2, +25 μM DIC, ± s.e.): 1600 ± 600 nM; Fold protection by DIC (MCF-7 cells; Table 4.2): 7.1; fold increase in solubility in HPβCD over PBS alone [6]: 3000 fold |
| CCc1cc(=O)n(C)c2c1C(=O)c1c(C)cc(=O)[nH]c1C2=O [Compound 107] | higher levels of PAR-PARP1 formation | 1400 ± 100 | 439 (≈ 131 µg/mL) | 280 | < 500 | 4.5 | 4.7 (≈ 1400 µg/mL) | 5.5 (≈ 1640 µg/mL) | 31 (≈ 9250 µg/mL) | 37 (≈ 11000 µg/mL) | 37 (≈ 11000 µg/mL) | 5.5 (≈ 1640 µg/mL) | 31 (≈ 9250 µg/mL) | 4.4 (≈ 1310 µg/mL) | MTD at 5 days [2]: ≤ 10 mg/kg and ≤ 35 µmol/kg; IC50 (MCF-7 cells; Homo sapiens, MCF7, 2 h, Table 4.1, 2 h exposure, no DIC, ± s.e., read-out: IC50 vs. MCF-7 cells): 280 ± 60 nM; IC50 (MCF-7 cells; Homo sapiens, MCF7, read-out: IC50 vs. MCF-7 cells +25 μM DIC, Table 4.1, +25 μM DIC, ± s.e.): 1300 ± 400 nM; Fold protection by DIC (MCF-7 cells; Table 4.1): 4.5 |
| CC1(C)CCC2=C(O1)c1ccccc1C(=O)C2=O [β-lap, β-lapachone, reference compound] | – | 150 | – | – | – | 2.1 | – | – | – | – | – | – | – | – | fold increase in solubility in HPβCD [7]: ~150 fold; LD50 (NQO1+ cells): 2 to 10 µM; time to complete degradation in whole blood [8]: ≤ 30 min; aqueous solubility [9]: ~160 µM (≈ 38.8 µg/mL); IC50 (MCF-7 cells; Table 1, read-out: MCF7 IC50): 3700 nM; THF solubility [4]: 660 mM; CH2Cl2:MeOH 2:1 solubility ([5]; CH2Cl2:MeOH 2:1, Table 1): 1400 mM; CH2Cl2 solubility ([5]; CH2Cl2, Table 1): 1650 mM; DMSO solubility ([5]; DMSO, Table 1): 170 mM |
